Results: patent US11426389B2, “Compositions and methods for promoting hematopoietic stem cell regeneration” (priority 2017, dated 2022)

How the values were obtained:
ShCamkk2 M1 cells = assay type: cell-based
Method: FIG. 6A-6F. CaMKK2 couples radiation signaling with the AMPK anti-proliferative pathway. HSPC (KL+KSL) were isolated from WT and Camkk2 null (KO) mice and irradiated in vitro with 400 cGy or left non-irradiated. Cells were then cultured for 1-h in regular medium. Protein expression was normalized by actin and expressed as fold change over basal (non-irradiated WT HSPC), and is reported on the top of each lane. (A) Immunoblots of CaMKK2, phospho-CaMK1 (pCaMK1) and actin. (B) Immunoblots of Tp53, phosphorylated AMPK and S6rp (pAMPK and pS6rp, respectively). (C-E) M1 myeloid progenitor cells were transduced with lentiviral vectors expressing a short hairpin sequence for silencing Camkk2 or a control sequence (ShCamkk2 and Ctrl, respectively). Ctrl and ShCamkk2 M1 cells were then irradiated or left non-irradiated. One-hour after irradiation, M1 cell protein expression was assessed by immunoblotting. (C) Expression of CaMKK2 and actin. […] Cell number was determined using a colorimetric assay, and the results are expressed as fold change of non-irradiated cells cultured in the absence of AICAR. […]
To determine the functional effects of Camkk2 deficiency in M1 cells, control and ShCamkk2 M1 cells were exposed to 300 cGy with or without a cell permeable AMPK agonist and the number of live M1 cells were determined 24 h after irradiation.

[1] = tested on: 900 cGy TBI wild-type mice; assay: Survival of lethally irradiated (900 cGy TBI, LD100/15) wild-type mice treated with STO-609; assay type: in vivo; conditions: 10 μM/kg on days 1, 2 and 3 post-TBI, intravenous, vs vehicle, n=10 per group
Method: (§1) FIGS. 7A-7D. Pharmacologic inhibition of CaMKK2 enhances hematopoietic regeneration in vivo. Treatment with STO-609, a CaMKK2 inhibitor, mitigates the acute hematopoietic radiation syndrome. (A) Scheme of irradiation and STO-609 treatment in wild type mice. (B) Survival of 900 cGy TBI wild-type mice treated with vehicle or STO-609 (n=10 per group). Wild-type mice were irradiated with 500 cGy TBI and were then treated with STO-609 or vehicle after 24 h. Nine days after TBI, the mice were killed and bones were removed. The BM cells were counted and stained to identify HSPC (BMC). (C) Representative staining and gating strategy. (D) Absolute number of BMC and HSPC (upper and lower graph, respectively). The results are expressed as the fold changes over the absolute number of cells recovered form vehicle-treated wild type mice, and are normalized for one femur. Two independent experiments have been combined (total number of mice-9 per group). Bars graph reports mean±S.E.M. *P-value<0.05, **P-value<0.01/
(§2) CaMKK2-EGFP transgenic reporter mice were used. Radiation was delivered by a Shepherd Cs^137γ-irradiator at a dose rate of approximately 600 cGy per min. […]
(§3) It was hypothesized that pharmacologic inhibition of CaMKK2 increases survival and HSPC recovery following TBI. […] Next, the effects of STO-609 treatment on HSPC of mice receiving 500 cGy TBI were evaluated. […]

HSPC = assay: Bone marrow cell and HSPC recovery in 500 cGy TBI wild-type mice treated with STO-609; assay type: in vivo; conditions: 9 days after TBI, vs vehicle-treated mice
Method: as §1, §2, §3

SMILES | cell death (ShCamkk2 M1 cells; M1 cells, following radiation or AICAR treatment (data not shown)) | number of live M1 cells (proliferation) after irradiation (ShCamkk2 M1 cells; ShCamkk2 M1 cells, 300 cGy, 24 h, AICAR 100 μM) | survival following TBI [1] | HSPC in the BM (HSPC) | total BM cells in the BM (HSPC)
NC(=O)c1ncn([C@@H]2O[C@H](CO)[C@@H](O)[C@H]2O)c1N [AICAR, 5-aminoimidazole-4-carboxamide 1-β-d-ribofuranoside] | no increase in cell death | reverted the refractory phenotype of ShCamkk2 M1 cells |  |  | 
O=C(O)c1ccc2c3c1cccc3c(=O)n1c3ccccc3nc21 [STO-609, 7H-benzimidazo(2,1-a)benz(de)isoquinoline-7-one-3-carboxylic acid] |  |  | significantly prolonged survival | More | More total BM cells
